Experimental data reported in US20250262139A1, “POLYPEPTIDES AND METHODS FOR IMPROVING SKIN CONDITIONS” (INTERK PEPTIDE THERAPEUTICS LIMITED, priority 2020, published 2025).
Where no end group is shown, it is not given here.

Tested on: primary keratinocytes
Experiment: ATP levels, CellTiter-Glo 2.0 Assay, after ssUV
Type: cell-based
Conditions: 1.5 hours after UVR; compared with Calcitriol
Description: The influence of the polypeptide IK34720 (SEQ ID NO: 3) on intracellular ATP following UV exposure was assessed using the following protocol.
Primary keratinocytes were harvested as described above in Example 2 and were either exposed to ssUV-irradiation (UVR), as described above in Example 2 or not irradiated (SHAM), in the presence or absence of Calcitriol (positive control) or polypeptide IK34720 (SEQ ID NO: 3; RSKAKNPLYRRRRRRRRR), at the concentrations described in Example 2.
ATP levels were determined 1.5 hours after UVR using the CellTiter-Glo® 2.0 Assay (Promega, WI, USA) as described previously (Rybchyn et al., vide supra, 2017). All data in FIG. 4 is shown as mean+SD. *p<0.05, **p<0.01. Cells were prepared and irradiated as described above.

RSKAKNPLYRRRRRRRRR (not fully specified (some residues)) [IK34720]
ATP levels: enhanced the ATP levels
